Like-named read-outs stand apart in the source and are kept apart here.
Target: recombinant human nicotinic acid receptor (NAR) (Homo sapiens, UniProt Q8TDS4)
Test: Nicotinic Acid Receptor Assay: inhibition of forskolin-stimulated cAMP accumulation in CHO cells (MesoScale Discovery cAMP kit)
Format: cell-based
Conditions: CHO cells expressing recombinant human NAR, read-out: NA EC50 camp
In short: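 Compounds were diluted in PBS containing 6 μM forskolin and incubated with cells for 30 min at room temperature. cAMP was quantified by the MesoScale kit against an on-plate standard curve.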

[1] = inhibition of forskolin-stimulated cAMP accumulation

recombinant human nicotinic acid receptor (NAR), sequence (Q8TDS4 whole entry): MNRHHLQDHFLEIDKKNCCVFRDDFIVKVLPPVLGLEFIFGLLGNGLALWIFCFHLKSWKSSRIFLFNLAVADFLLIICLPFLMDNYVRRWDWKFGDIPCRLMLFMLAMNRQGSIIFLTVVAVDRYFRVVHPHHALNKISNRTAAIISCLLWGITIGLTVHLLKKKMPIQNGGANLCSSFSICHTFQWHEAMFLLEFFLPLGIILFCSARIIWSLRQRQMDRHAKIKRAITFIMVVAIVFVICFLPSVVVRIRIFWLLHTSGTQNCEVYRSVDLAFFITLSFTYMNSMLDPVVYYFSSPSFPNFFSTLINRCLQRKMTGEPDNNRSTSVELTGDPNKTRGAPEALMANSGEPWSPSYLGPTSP

| Compound | EC50 (forskolin-stimulated cAMP) | EC50 [1] |
| --- | --- | --- |
| CCc1cc(=O)oc2nc(OC(C)c3ccccc3C(F)(F)F)[nH]c(=O)c12 (stereo not drawn) [Compound 508] | > 1000 nM |  |
| CCCOCCCc1cc(=O)oc2[nH]c(=O)[nH]c(=O)c12 [Compound 270] | 0.001 to 100 nM |  |
| CCc1cc(=O)oc2nc(OCc3ccc(-c4ccccc4)cc3)[nH]c(=O)c12 [Compound 517] | > 1000 nM |  |
| CCc1cc(=O)oc2nc(OCc3cc(C)ccc3C)[nH]c(=O)c12 [Compound 539] | 100 to 1000 nM |  |
| CCc1cc(=O)oc2nc(OCc3nn(-c4ccccc4)nc3C)[nH]c(=O)c12 [Compound 535] | 100 to 1000 nM |  |
| O=c1[nH]c(=O)c2c(CC3CC3)cc(=O)oc2[nH]1 [Compound 206] | 100 to 1000 nM |  |
| CCc1cc(=O)oc2nc(OCc3ccc(C#N)cc3)[nH]c(=O)c12 [Compound 630] | > 1000 nM |  |
| CCc1cc(=O)oc2nc(OCc3cccc(-c4ccccc4Cl)c3)[nH]c(=O)c12 [Compound 564] | 100 to 1000 nM |  |
| CCCCc1cc(=O)oc2[nH]c(=O)n(CC3CC3)c(=O)c12 [Compound 258] | 100 to 1000 nM |  |
| CC(=O)NCCCc1cc(=O)oc2[nH]c(=O)[nH]c(=O)c12 [Compound 237] | > 1000 nM |  |
| O=c1cc(CCCCc2cccs2)c2c(=O)n(C3CCC3)c(=O)[nH]c2o1 [Compound 280] | > 1000 nM |  |
| CCc1cc(=O)oc2nc(OCc3cccc(-c4ccccc4)n3)[nH]c(=O)c12 [Compound 520] | > 1000 nM |  |
| CCc1cc(=O)oc2nc(OCc3cccc(-c4ccc(F)cc4)c3)[nH]c(=O)c12 [Compound 566] | > 1000 nM |  |
| CC(C)(C)OC(=O)N1CCC(Cc2cc(=O)oc3[nH]c(=O)[nH]c(=O)c23)CC1 [Compound 221] | > 1000 nM |  |
| CCc1cc(=O)oc2nc(OCc3ncccc3C)[nH]c(=O)c12 [Compound 556] | > 1000 nM |  |
| CCc1cc(=O)oc2nc(OCCOc3ccccc3)[nH]c(=O)c12 [Compound 525] | 100 to 1000 nM |  |
| CC1CCC(Cc2cc(=O)oc3[nH]c(=O)n(C4CCC4)c(=O)c23)CC1 (stereo not drawn) [Compound 246] | > 1000 nM |  |
| O=c1[nH]c(=O)c2c(CCC34CC5CC(CC(C5)C3)C4)cc(=O)oc2[nH]1 [Compound 215] | > 1000 nM |  |
| O=c1[nH]c(=O)c2c(Cc3ccc(-c4ccccc4F)cc3)cc(=O)oc2[nH]1 [Compound 205] | 100 to 1000 nM |  |
| CCc1cc(=O)oc2nc(OCc3cc(C)cc(C)c3)[nH]c(=O)c12 [Compound 505] | 100 to 1000 nM |  |
| CCc1cc(=O)oc2nc(OCCSc3ccc(Cl)cc3)[nH]c(=O)c12 [Compound 587] | > 1000 nM |  |
| O=c1[nH]c(=O)c2c(CCCc3cn(Cc4ccccc4)nn3)cc(=O)oc2[nH]1 [Compound 251] | 100 to 1000 nM |  |
| CCc1cc(=O)oc2nc(OCc3cccc(OC)n3)[nH]c(=O)c12 [Compound 544] | 100 to 1000 nM |  |
| O=c1[nH]c(=O)c2c(C3CCCC3)cc(=O)oc2[nH]1 [Compound 227] | > 1000 nM |  |
| O=c1[nH]c(=O)c2c(CCCOCc3ccccc3)cc(=O)oc2[nH]1 [Compound 264] | > 1000 nM |  |

Further lines, results first:

| EC50 (forskolin-stimulated cAMP) | EC50 [1] | Compound |
| --- | --- | --- |
|  | 1230 nM | O=c1cc(CCC2CCCC2)c2c(=O)[nH]c(CF)nc2o1 [Compound 747] |
| 0.001 to 100 nM |  | CCc1cc(=O)oc2nc(OCCN(C)C)[nH]c(=O)c12 [Compound 652] |
|  | 511 nM | CCCCCCc1cc(=O)oc2[nH]c(=O)nc(OCF)c12 [Compound 833] |
|  | 128 nM | CCCCCc1cc(=O)oc2nc(CF)[nH]c(=O)c12 [Compound 744] |
|  | > 10000 nM | Cc1cc(=O)oc2nc(CF)[nH]c(=O)c12 [Compound 810] |
|  | 40 nM | CCC(C)CCc1cc(=O)oc2nc(C(F)F)[nH]c(=O)c12 (stereo not drawn) [Compound 812] |
|  | 682 nM | CCCCc1cc(=O)oc2[nH]c(=O)nc(OCCOC)c12 [Compound 787] |
|  | 64 nM | CCn1c(=O)[nH]c2oc(=O)cc(CCC3CCC3)c2c1=O [Compound 783] |
|  | 5600 nM | CCOn1c(=O)[nH]c2oc(=O)cc(CCC3CCC3)c2c1=O [Compound 777] |
|  | 304 nM | CCCc1cc(=O)oc2[nH]c(=O)nc(OCF)c12 [Compound 832] |
|  | 50 nM | CCCCc1cc(=O)oc2nc(O[C@H]3C[C@H](COCc4ccccc4)C3)[nH]c(=O)c12 [Compound 791] |

— patent US7737155B2, “Nitrogen-containing heterocyclic compounds and methods of use thereof” (Schering Corporation, priority 2005, dated 2010)
